Test results as given in patent US10351578B2, “Heterocyclic-substituted pyridinopyrimidinone derivative as CDK inhibitor and use thereof” (Shanghai Xunhe Pharmaceutical Technology Co. Ltd., priority 2016, dated 2019).

Legend:
[1] = biological target: T1, CDK6 protein kinase (GST-CDK6(1-326 end)) (Homo sapiens, UniProt Q00534); test: CDK6 protein kinase activity, Caliper mobility shift assay; format: biochemical; conditions: substrate Peptide FAM-P8, 28° C. for 3 h
T1 construct: GST-CDK6(1-326 end); GST (N)
Experimental: (§1) Activity Assay: The CDK6 protein kinase activity was measured using the Caliper mobility shift assay (see J. Biomol. Screen, 2009, PP31). The test compound was dissolved in DMSO and diluted with a kinase buffer solution (20 mM HEPES-pH 7.5, 0.01% Triton X-100, 10 mM MgCl2, 2 mM DTT) and 5 μL of the compound at 5-fold final concentration of reaction dissolved in 10% DMSO was added in a 384-well plate. The compound-free control well was 5 μL of 10% DMSO, and the no-activity control well was 5 μL of kinase buffer. 10 μL of a 2.5-fold diluted CDK6 enzyme solution (GST-CDK6(1-326 end)) was added and incubated at room temperature for 10 min, and then 10 μL of the 2.5-fold diluted substrate solution Peptide FAM-P8 was added. The reaction was stopped by adding 25 μL of stop solution after incubation at 28° C. for 3 h, and the conversion rate data was read on a Caliper EZ Reader II (Caliper Life Sciences) and the conversion rate was converted to inhibition rate data according to above method. Among them, the inhibition rate %=(max−conversion)/(max−min)×100%.

[2] = biological target: T2, CDK4 protein kinase (GST-CDK4(1-303 end)) (Homo sapiens, UniProt P11802); test: CDK4 protein kinase activity, Caliper mobility shift assay; format: biochemical; conditions: substrate Peptide FAM-P8, 28° C. for 3 h
T2 construct: GST-CDK4(1-303 end); GST (N)
Experimental: as §1, with “CDK4” for “CDK6”, “(GST-CDK4(1-303” for “(GST-CDK6(1-326”

T1 sequence (Q00534 whole entry): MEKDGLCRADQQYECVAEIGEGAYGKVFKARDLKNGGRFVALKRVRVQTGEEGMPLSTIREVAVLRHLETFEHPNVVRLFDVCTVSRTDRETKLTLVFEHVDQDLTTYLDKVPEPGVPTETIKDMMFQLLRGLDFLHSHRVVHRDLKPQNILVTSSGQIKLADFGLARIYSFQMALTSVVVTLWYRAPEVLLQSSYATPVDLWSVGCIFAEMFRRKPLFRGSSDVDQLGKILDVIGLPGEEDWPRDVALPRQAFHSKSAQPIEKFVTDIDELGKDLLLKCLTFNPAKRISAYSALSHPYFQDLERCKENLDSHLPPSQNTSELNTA
T1 sequence (P30281 whole entry partner): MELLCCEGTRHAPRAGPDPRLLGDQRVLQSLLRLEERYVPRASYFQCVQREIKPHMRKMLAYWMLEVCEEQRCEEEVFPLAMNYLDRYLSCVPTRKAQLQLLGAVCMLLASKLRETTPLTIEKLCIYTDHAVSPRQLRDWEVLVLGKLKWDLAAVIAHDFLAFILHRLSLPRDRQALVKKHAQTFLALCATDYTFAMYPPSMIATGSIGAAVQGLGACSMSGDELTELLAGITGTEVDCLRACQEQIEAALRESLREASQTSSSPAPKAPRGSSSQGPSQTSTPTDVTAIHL
T2 sequence (P11802 whole entry): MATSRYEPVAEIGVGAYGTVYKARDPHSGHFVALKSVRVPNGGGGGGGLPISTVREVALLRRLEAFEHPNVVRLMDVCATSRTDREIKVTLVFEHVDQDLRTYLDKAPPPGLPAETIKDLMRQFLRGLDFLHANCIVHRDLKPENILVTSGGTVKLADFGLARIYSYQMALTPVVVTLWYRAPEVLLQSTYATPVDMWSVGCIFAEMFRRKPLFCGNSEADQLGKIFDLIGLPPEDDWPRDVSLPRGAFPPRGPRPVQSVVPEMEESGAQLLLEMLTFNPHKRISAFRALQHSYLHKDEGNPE
T2 sequence (P30281 whole entry partner): as the sequence (P30281 whole entry partner) above

IC50 [1] [nM] | IC50 [2] [nM] | SMILES
20 to 100 | ≤ 20 | CCN1CCN(Cc2ccc(Nc3ncc4c(n3)N(c3ccccn3)C(=O)C(C)(C)O4)nc2)CC1 [Compound I-30, 6,6-dimethyl-8-(2-pyridyl)-2-(5-(4-ethyl-1-piperazinyl)methyl-pyridine-2-amino)-6H-pyrimido[5,4-b][1,4]oxazin-7(8H)-one]
100 to 500 | ≤ 20 | CCN1CCN(Cc2ccc(Nc3ncc4c(n3)N(C3CCCC3)C(=O)C(C(C)=O)O4)nc2)CC1 (stereo not drawn) [Compound I-26, 6-acetyl-8-cyclopentyl-2-(5-(4-ethyl-1-piperazinyl)methyl-pyridin-2-amino)-6H-pyrimido[5,4-b][1,4]oxazin-7(8H)-one]
> 500 | ≤ 20 | CCC(C)N1C(=O)C(C2CCCC2)Sc2cnc(Nc3ccc(CN4CCNCC4)cn3)nc21 (stereo not drawn) [Compound I-17, 6-cyclopentyl-8-sec-butyl-2-(5-(1-piperazinyl)methyl-pyridin-2-amino)-6H-pyrimido[5,4-b][1,4]thiazin-7(8H)-one]
20 to 100 | ≤ 20 | CC(=O)C1Oc2cnc(Nc3ccc(N4CCNCC4)cn3)nc2N(C2CCCC2)C1=O (stereo not drawn) [Compound I-9, 6-acetyl-8-cyclopentyl-2-(5-(1-piperazinyl)-pyridin-2-amino)-6H-pyrimido[5,4-b][1,4]oxazin-7(8H)-one]
20 to 100 | ≤ 20 | CCC(CC)N1C(=O)C(C)(C)Oc2cnc(Nc3ccc(CN4CCN(CC)CC4)cn3)nc21 [Compound I-38, 6,6-dimethyl-8-(3-pentyl)-2-(5-(4-ethyl-1-piperazinyl)methyl-pyridine-2-amino)-6H-pyrimido[5,4-b][1,4]oxazin-7(8H)-one]
≤ 20 | ≤ 20 | CC(C)N1CCN(c2ccc(Nc3ncc4c(n3)N(C3CCCC3)C(=O)C(C)(C)S4)nc2)CC1 [Compound I-24, 6,6-dimethyl-8-cyclopentyl-2-(5-(4-isopropyl-1-piperazinyl)-pyridin-2-amino)-6H-pyrimido[5,4-b][1,4]thiazin-7(8H)-one]
≤ 20 | ≤ 20 | CCC(C)(C)N1C(=O)C(C2CCCCC2)Oc2cnc(Nc3ccc(CN4CCN(C5CC5)CC4)cn3)nc21 (stereo not drawn) [Compound I-18, 6-cyclohexyl-8-tert-amyl-2-(5-(4-cyclopropyl-1-piperazinyl)methyl-pyridin-2-amino)-6H-pyrimido[5,4-b][1,4]oxazin-7(8H)-one]
20 to 100 | ≤ 20 | O=C1N(C2CCCC2)c2nc(Nc3ccc(N4CCNCC4)cn3)ncc2OC12CCCCCC2 [Compound I-8, 8′-cyclopentyl-2′-(5-(1-piperazinyl)-pyridin-2-amino)spiro[cyclohepta-1,6′-pyrimido[5,4-b][1,4]oxazin]-7′(8′H)-one]
≤ 20 | ≤ 20 | CC1(C)Oc2cnc(Nc3ccc(N4CCN(C5CCC5)CC4)cn3)nc2N(C2CCCC2)C1=O [Compound I-20, 6,6-dimethyl-8-cyclopentyl-2-(5-(4-cyclobutyl-1-piperazinyl)-pyridin-2-amino)-6H-pyrimido[5,4-b][1,4]oxazin-7(8H)-one]
20 to 100 | ≤ 20 | CCN1CCN(Cc2ccc(Nc3ncc4c(n3)N(C3CCCC3)C(=O)C3(CCC3)O4)nc2)CC1 [Compound I-28]

Continued, compound first:

SMILES | IC50 [1] [nM] | IC50 [2] [nM]
O=C1N(C2CCCC2)c2nc(Nc3ccc(N4CCNCC4)cn3)ncc2OC12CCCCC2 [Compound I-7, 8′-cyclopentyl-2′-(5-(1-piperazinyl)-pyridin-2-amino)spiro[cyclohex-1,6′-pyrimido[5,4-b][1,4]oxazin]-7′(8′H)-one] | ≤ 20 | ≤ 20
CC1(C)Oc2cnc(Nc3ccc(N4CCN(C5CCCC5)CC4)cn3)nc2N(C2CCCC2)C1=O [Compound I-21, 6,6-dimethyl-8-cyclopentyl-2-(5-(4-cyclopentyl-1-piperazinyl)-pyridin-2-amino)-6H-pyrimido[5,4-b][1,4]oxazin-7(8H)-one] | 20 to 100 | ≤ 20
O=C1N(C2CCCC2)c2nc(Nc3ccc(N4CCNCC4)cn3)ncc2OC1(F)F [Compound I-12, 6,6-difluoro-8-cyclopentyl-2-(5-(1-piperazinyl)-pyridin-2-amino)-6H-pyrimido[5,4-b][1,4]oxazin-7(8H)-one] | 20 to 100 | ≤ 20
CCN1CCN(Cc2ccc(Nc3ncc4c(n3)N(C)C(=O)C(C(C)C)O4)nc2)CC1 (stereo not drawn) [Compound I-15, 6-isopropyl-8-methyl-2-(5-(4-ethyl-1-piperazinyl)methyl-pyridin-2-amino)-6H-pyrimido[5,4-b][1,4]oxazin-7(8H)-one] | 20 to 100 | ≤ 20
CCN1CCN(Cc2ccc(Nc3ncc4c(n3)N(C3CCCC3)C(=O)C(C3CCC3)O4)nc2)CC1 (stereo not drawn) [Compound I-14, 6-cyclobutyl-8-cyclopentyl-2-(5-(4-ethyl-1-piperazinyl)methyl-pyridin-2-amino)-6H-pyrimido[5,4-b][1,4]oxazin-7(8H)-one] | ≤ 20 | ≤ 20
CC1(C)Oc2cnc(Nc3ccc(N4CCNCC4)cn3)nc2N(c2cccs2)C1=O [Compound I-29, 6,6-dimethyl-8-(2-thienyl)-2-(5-(1-piperazinyl)-pyridin-2-amino)-6H-pyrimido[5,4-b][1,4]oxazin-7(8H)-one] | ≤ 20 | ≤ 20
O=C1N(C2CCCC2)c2nc(Nc3ccc(N4CCNCC4)cn3)ncc2OC12CC2 [Compound I-4, 8′-cyclopentyl-2′-(5-(1-piperazinyl)-pyridin-2-amino)spiro[cycloprop-1,6′-pyrimido[5,4-b][1,4]oxazin]-7′(8′H)-one] | 20 to 100 | ≤ 20
CCN1CCN(Cc2ccc(Nc3ncc4c(n3)N(C3CCCC3)C(=O)C(C)(C)O4)nc2)CC1 [Compound I-3, 6,6-Dimethyl-8-cyclopentyl-2-(5-(4-ethyl-1-piperazinyl)methyl-pyridin-2-amino)-6H-pyrimido[5,4-b][1,4]oxazin-7(8H)-one] | ≤ 20 | ≤ 20
O=C1N(C2CCCC2)c2nc(Nc3ccc(N4CCNCC4)cn3)ncc2OC12CCC2 [Compound I-5, 8′-cyclopentyl-2′-(5-(1-piperazinyl)-pyridin-2-amino)spiro[cyclobut-1,6′-pyrimido[5,4-b][1,4]oxazin]-7′(8′H)-one] | 20 to 100 | ≤ 20
CCC(CC)N1C(=O)C(C)(C)Oc2cnc(Nc3ccc(N4CCNCC4)cn3)nc21 [Compound I-37, 6,6-dimethyl-8-(3-pentyl)-2-(5-(1-piperazinyl)-pyridin-2-amino)-6H-pyrimido[5,4-b][1,4]oxazin-7(8H)-one] | 20 to 100 | ≤ 20
CCN1C(=O)C(C)(CC)Oc2cnc(Nc3ccc(CN4CCN(C)CC4)cn3)nc21 (stereo not drawn) [Compound I-16, 6-methyl-6,8-diethyl-2-(5-(4-methyl-1-piperazinyl)methyl-pyridin-2-amino)-6H-pyrimido[5,4-b][1,4]oxazin-7(8H)-one] | ≤ 20 | ≤ 20
CC1(C)Oc2cnc(Nc3ccc(N4CCNCC4)cn3)nc2N(c2ccco2)C1=O [Compound I-32] | > 500 | ≤ 20
NC(=O)C1Oc2cnc(Nc3ccc(N4CCNCC4)cn3)nc2N(C2CCCC2)C1=O (stereo not drawn) [Compound I-34, 6-carboxamide-8-cyclopentyl-2-(5-(1-piperazinyl)-pyridin-2-amino)-6H-pyrimido[5,4-b][1,4]oxazin-7(8H)-one] | ≤ 20 | ≤ 20
CC1(C)Oc2cnc(Nc3ccc(N4CCNCC4)cn3)nc2N(c2ccc(Cl)cc2)C1=O [Compound I-36, 6,6-dimethyl-8-(4-chlorophenyl)-2-(5-(1-piperazinyl)-pyridin-2-amino)-6H-pyrimido[5,4-b][1,4]oxazin-7(8H)-one] | ≤ 20 | ≤ 20
N#CC1Oc2cnc(Nc3ccc(N4CCNCC4)cn3)nc2N(C2CCCC2)C1=O (stereo not drawn) [Compound I-10, 6-cyano-8-cyclopentyl-2-(5-(1-piperazinyl)-pyridin-2-amino)-6H-pyrimido[5,4-b][1,4]oxazin-7(8H)-one] | 100 to 500 | ≤ 20
CCCN1CCN(Cc2ccc(Nc3ncc4c(n3)N(C(C)C(C)C)C(=O)C(C3CCCCCC3)S4)nc2)CC1 (stereo not drawn) [Compound I-19, 6-cycloheptyl-8-(3-methyl-2-butyl)-2-(5-(4-n-propyl-1-piperazinyl)methyl-pyridine-2-amino)-6H-pyrimido[5,4-b][1,4]thiazin-7(8H)-one] | 20 to 100 | ≤ 20
CC1(C)Oc2cnc(Nc3ccc(N4CCNCC4)cn3)nc2N(C2CCCC2)C1=O [Compound I-2, 6,6-Dimethyl-8-cyclopentyl-2-(5-(1-piperazinyl)-pyridin-2-amino)-6H-pyrimido[5,4-b][1,4]oxazin-7(8H)-one] | ≤ 20 | ≤ 20
